Columns and labels:
Format in all cases: in vivo
Wheat [1] = experiment: Field pre-emergence test, wheat; conditions: reading 0 (no effect) to 10 (completely killed), the values are: rating score 0–10
Protocol: (§1) Forty rows, 70 feet long, were planted to weeds and crops. Two rows were planted on each bed. Beds were 40 inches apart from center to center. The two rows were about 10 inches apart on each. Beds were rolled prior to planting to provide a uniform smooth surface. Soil temperature at a depth of 11/2 inches was 66° F. at time of planting. Post-emergence applications were made by spraying bands across rows 10 feet wide using a self-propelled plot sprayer with a 10 foot boom equipped with Teejet 8001 flat spray nozzle tips and operated at 40 psi. A total of 84 fluid ounces of spray material was applied to three replicates. Each replicate plot was 10 feet wide by 66.67 feet long.
(§2) An additional 100 feet of crops and weeds shown in TABLES XIII and XIV were planted in the same manner as the above post-emergence plots. Soil temperature at planting was […] at a depth of 11/2 inches. […]
(§3) Eight days after the application, readings were made on the effect of the chemicals on each crop and weed in the post-emergence treatment. A reading of 0 was recorded if no effect was observed; 10 recorded if the plants were completely killed, and readings of 1 to 9 for intermediate kills. A second reading of the post-emergence treatments was made 14 days after the application.
(§4) Readings were made 14 and 20 days after the pre-emergence application.

Wheat [2] = experiment: Field post-emergence test, wheat; conditions: 2 lbs/acre, reading 0 (no effect) to 10 (completely killed), the values are: control rating (0–10 scale)
Protocol: as §1, §3

Sinapis [3] = experiment: Field post-emergence test, Sinapis; conditions: 2 lbs/acre, reading 0 (no effect) to 10 (completely killed), the values are: rating score 0–10
Protocol: as §1, §3

crops and weed species = experiment: Pre- and post-emergence herbicide tests, overall assessment; conditions: TABLES III-VI
Protocol: All crop and weed species were planted individually in 3" plastic pots containing potting soil. Four seeds each of corn, cotton, and snapbeans were seeded to a depth equal to the diameter of the seed. All other species were surface seeded and sprinkled with screened soil in an amount sufficient to cover the seed. Immediately after planting, all pots were watered by sub-irrigation in greenhouse trays. Pots for the pre-emergence phase were seeded one day before treatment.
Planting dates for the post-emergence phase were varied so that all seedlings would reach the desired stage of development simultaneously. The proper stage of seedling development for treatment in the post-emergence phase is as follows:
Compounds were tested at rates of application equivalent to 8 lbs. of actual compound per acre in a spray volume of 38 gallons per acre. Spray hood constants required to deliver the above volume are as follows:
Spray applications were made in a hood containing a removable belt and fixed spray nozzle. For passage through the spray hood, one pot of each specie (pre-emergence phase) was placed on the rear half of the flat. Treatments were removed to the greenhose after spraying. Watering during the observation period was done only by sub-irrigation.
Two weeks after treatment, pre- and post-emergence injury or control was visually rated, and the results were as shown in the following tables. Pre-emergence data are provided in TABLE III and post-emergence data are provided in TABLE IV, for compounds having the formula illustrated in TABLE I. Correspondingly, pre-emergence and post-emergence data, respectively, are set forth in TABLES V AND VI, for compounds having the formula illustrated in TABLE II.

Oats [4] = experiment: Field post-emergence test, oats; conditions: 2 lbs/acre, reading 0 (no effect) to 10 (completely killed), the values are: rating score 0–10
Protocol: as §1, §3

Oats [5] = experiment: Field pre-emergence test, oats; conditions: reading 0 (no effect) to 10 (completely killed), the values are: rating score 0–10
Protocol: as §1, §2, §3, §4

Sinapis [6] = experiment: Field pre-emergence test, Sinapis; conditions: reading 0 (no effect) to 10 (completely killed), the values are: rating score 0–10
Protocol: as §1, §2, §3, §4

Structure (SMILES) | effectiveness applied to a variety of crops and weed species (crops and weed species) | selectivity when applied to a certain crop or weed species (crops and weed species) | other results
CNC(=O)Nc1nnc(C(F)(F)F)s1 [Example 1, 1-Methyl-3-[5-Trifluoromethyl-2-(1,3,4-Thiadiazolyl)] Urea] | extremely effective |  | PRE-EMERGENCY ACTIVITY, % CONTROL (Wheat [1]; 1 lbs/acre): 10; PRE-EMERGENCY ACTIVITY, % CONTROL (Wheat [1]; 2 lbs/acre): 10; POST-EMERGENCE ACTIVITY, % CONTROL (Wheat [2]): 10; POST-EMERGENCE ACTIVITY, % CONTROL (Sinapis [3]): 10; POST-EMERGENCE ACTIVITY, % CONTROL (Oats [4]): 9; PRE-EMERGENCY ACTIVITY, % CONTROL (Oats [5]; 1 lbs/acre): 10; PRE-EMERGENCY ACTIVITY, % CONTROL (Oats [5]; 2 lbs/acre): 10; PRE-EMERGENCY ACTIVITY, % CONTROL (Sinapis [6]; 1 lbs/acre): 10; PRE-EMERGENCY ACTIVITY, % CONTROL (Sinapis [6]; 2 lbs/acre): 10
CN(C)C(=O)Nc1nnc(C(F)(F)F)s1 [Example 2, 1,1-Dimethyl-3-[5-Trifluoromethyl-2-(1,3,4-Thiadiazolyl)] Urea] | extremely effective |  | 
CSc1nnc(N(C)C(=O)N(C)C)s1 [Example 5, 1,1,3-trimethyl-3-[5-methylthio-3-(1,3,4-thiadiazolyl)] urea] | extremely effective |  | 
CCNC(=O)Nc1nnc(C(F)(F)F)s1 [Example 9] |  | more selective | 
C=CCNC(=O)Nc1nnc(C(F)(F)F)s1 [Example 12] |  |  | selectivity post-emergence versus pre-emergence (crops and weed species): control post-emergence growth, while have little effect in regard to pre-emergence
O=C(Nc1ccc(Cl)cc1)Nc1nnc(C(F)(F)F)s1 [Example 15] |  | more selective | 
O=C(Nc1ccc(Cl)c(Cl)c1)Nc1nnc(C(F)(F)F)s1 [Example 16] |  | more selective | 
Cc1nnc(NC(=O)N(C)C)s1 [Example 19] |  |  | selectivity post-emergence versus pre-emergence (crops and weed species): The converse of this relationship
CCc1nnc(NC(=O)N(C)C)s1 [Example 20] |  | more selective | 
CNC(=O)Nc1nnc(CC(C)C)s1 [Example 21] |  | more selective | 
CNC(=O)Nc1nnc(COC)s1 [Example 25] |  | more selective | 
CNC(=O)Nc1nnc(SC)s1 [Example 26] | extremely effective |  | 
CNC(=O)Nc1nncs1 [Example 35] |  | more selective | 
CNC(=O)N(C)c1nnc(C(F)(F)F)s1 [Example 36] | extremely effective |  | 
CCN(C(=O)NC)c1nnc(C(F)(F)F)s1 [Example 37] | extremely effective |  | 
